Experiment: Solubility of representative compounds (Table 1)
Type: physicochemical
Settings: solvents listed

Row | Solubility | Structure (SMILES)
1 | EtOH, DMSO | Cc1ccc(CC[C@H]2CCNC(C(=O)N[C@@H](CO)[C@@H](O)c3ccccc3)C2)cc1 (stereo in doubt) [CYD-6-9-1, (2S,4S)—N-((1S,2S)-1,3-dihydroxy-1-phenylpropan-2-yl)-4-(4-methylphenethyl)piperidine-2-carboxamide]
2 | EtOH, DMSO | CC1CCC(CC[C@H]2CCNC(C(=O)N[C@@H](CO)[C@@H](O)c3ccccc3)C2)CC1 (stereo in doubt) [CYD-6-10-1, (2S,4S)—N-((1S,2S)-1,3-dihydroxy-1-phenylpropan-2-yl)-4-(2-(4-methylcyclohexyl)ethyl)piperidine-2-carboxamide]
3 | EtOH, DMSO | CC1CCC(CC[C@@H]2CCN[C@H](C(=O)N[C@@H](CO)C(O)c3ccccc3)C2)CC1 (stereo in doubt) [CYD-6-10-2, (2S,4R)—N-((1R,2S)-1,3-dihydroxy-1-phenylpropan-2-yl)-4-(2-(4-methylcyclohexyl)ethyl)piperidine-2-carboxamide]
4 | EtOH, DMSO | O=C(N[C@@H](CO)[C@@H](O)c1ccccc1)C1C[C@@H](C2CCCCC2)CCN1 (stereo in doubt) [CYD-6-15-1, (2S,4S)-4-cyclohexyl-N-((1S,2S)-1,3-dihydroxy-1-phenylpropan-2-yl)piperidine-2-carboxamide]
5 | EtOH, DMSO | O=C(N[C@@H](CO)[C@@H](O)c1ccccc1)C1C[C@@H](c2ccccc2)CCN1 (stereo in doubt) [CYD-6-16-1, (2S,4S)—N-((1S,2S)-1,3-dihydroxy-1-phenylpropan-2-yl)-4-phenylpiperidine-2-carboxamide]
6 | EtOH, DMSO | CCCCCCCCCC#Cc1ccnc(C(=O)NC(C(C)Cl)C2OC(SC)C(O)C(O)C2O)c1 (stereo not shown) [CYD-3-21, 4-Undec-1-ynyl-pyridine-2-carboxylic acid [2-chloro-1-(3,4,5-trihydroxy-6-methylsulfanyl-tetrahydro-pyran-2-yl)-propyl]-amide]
7 | EtOH, DMSO H2O | O=C(NC(CO)CO)c1ccccc1C1CCNCC1 [CYD-3-33, N-(1,3-Dihydroxypropan-2-yl)-2-(piperidin-4-yl)benzamide]
8 | EtOH, DMSO, H2O | O=C(NCC(O)CO)c1ccccc1C1CCNCC1 (stereo not shown) [CYD-3-35, N-(2,3-Dihydroxypropyl)-2-(piperidin-4-yl)benzamide]
9 | EtOH, DMSO | CCCCCCCCCCC[C@H]1CCN[C@@H](C(=O)N[C@@H](CO)[C@@H](O)c2ccccc2)C1 [CYD-3-47-1, (2R,4S)—N-((1S,2S)-1,3-dihydroxy-1-phenylpropan-2-yl)-4-undecylpiperidine-2-carboxamide]
10 | EtOH, DMSO | CCCCCCCCCCC[C@@H]1CCN[C@H](C(=O)N[C@@H](CO)[C@@H](O)c2ccccc2)C1 [CYD-3-47-2, (2S,4R)—N-((1S,2S)-1,3-dihydroxy-1-phenylpropan-2-yl)-4-undecylpiperidine-2-carboxamide]
11 | EtOH, DMSO, H2O | O=C(NCC(O)CO)C1CNCCN1c1ccccc1 (stereo not shown) [CYD-3-49, N-(2,3-Dihydroxypropyl)-1-phenylpiperazine-2-carboxamide]
12 | EtOH, DMSO, H2O | O=C(N[C@@H](CO)[C@@H](O)c1ccccc1)c1ccccc1C1CCNCC1 [CYD-3-50, N-((1S,2S)-1,3-dihydroxy-1-phenylpropan-2-yl)-2-(piperidin-4-yl)benzamide]
13 | EtOH, DMSO | CS[C@H]1O[C@H]([C@H](NC(=O)C2CC(CCc3ccccc3)CCN2)[C@@H](C)O)[C@H](O)[C@H](O)[C@H]1O (stereo partly drawn) [CYD-3-61, 2,4-cis-4-Phenethyl-piperidine-2-carboxylic acid [2-hydroxy-1-(3,4,5-trihydroxy-6-methylsulfanyl-tetrahydro-pyran-2-yl)-propyl]-amide]
14 | EtOH, DMSO | CS[C@H]1O[C@H]([C@H](NC(=O)C2CC(CCC3CCCCC3)CCN2)[C@@H](C)O)[C@H](O)[C@H](O)[C@H]1O (stereo partly drawn) [CYD-3-62, 2,4-cis-4-(2-Cyclohexyl-ethyl)-piperidine-2-carboxylic acid [2-hydroxy-1-(3,4,5-trihydroxy-6-methylsulfanyl-tetrahydro-pyran-2-yl)-propyl]-amide]
15 | EtOH, DMSO | CCCCCCCCCCC[C@@H]1CCN[C@H](C(=O)N[C@H](CO)[C@H](O)c2ccccc2)C1 [CYD-5-68-1, (2S,4R)—N-((1R,2R)-1,3-dihydroxy-1-phenylpropan-2-yl)-4-undecylpiperidine-2-carboxamide]
16 | EtOH, DMSO | CCCCCCCCCCC[C@H]1CCN[C@@H](C(=O)N[C@H](CO)[C@H](O)c2ccccc2)C1 [CYD-5-68-2, (2R,4S)—N-((1R,2R)-1,3-dihydroxy-1-phenylpropan-2-yl)-4-undecylpiperidine-2-carboxamide]

Row | Solubility | Structure (SMILES)
17 | EtOH, DMSO | CCCCCCCCCCC[C@H]1CCN[C@@H](C(=O)N[C@@H](CO)[C@@H](O)c2ccc(SC)cc2)C1 [CYD-5-77-1, (2R,4S)—N-((1S,2S)-1,3-dihydroxy-1-(4-(methylthio)phenyl)propan-2-yl)-4-undecylpiperidine-2-carboxamide]
18 | EtOH, DMSO | CCCCCCCCCCC[C@@H]1CCN[C@H](C(=O)N[C@@H](CO)[C@@H](O)c2ccc(SC)cc2)C1 [CYD-5-77-2, (2S,4R)—N-((1S,2S)-1,3-dihydroxy-1-(4-(methylthio)phenyl)propan-2-yl)-4-undecylpiperidine-2-carboxamide]
19 | EtOH, DMSO | CCCCCCCCCCC[C@H]1CCN[C@@H](C(=O)N[C@@H](CO)[C@@H](O)c2ccc(S(C)(=O)=O)cc2)C1 [CYD-5-80-1, (2R,4S)—N-((1S,2S)-1,3-dihydroxy-1-(4-(methylsulfonyl)phenyl)propan-2-yl)-4-undecylpiperidine-2-carboxamide]
20 | EtOH, DMSO | CCCCCCCCCCC[C@@H]1CCN[C@H](C(=O)N[C@@H](CO)[C@@H](O)c2ccc(S(C)(=O)=O)cc2)C1 [CYD-5-80-2, (2S,4R)—N-((1S,2S)-1,3-dihydroxy-1-(4-(methylsulfonyl)phenyl)propan-2-yl)-4-undecylpiperidine-2-carboxamide]
21 | EtOH, DMSO | O=C(N[C@H](CO)[C@H](O)c1ccccc1)[C@@H]1C[C@H](CCc2ccccc2)CCN1 [CYD-5-100-1, (2S,4R)—N-((1R,2R)-1,3-dihydroxy-1-phenylpropan-2-yl)-4-phenethylpiperidine-2-carboxamide]
22 | EtOH, DMSO | O=C(N[C@H](CO)[C@H](O)c1ccccc1)[C@H]1C[C@@H](CCc2ccccc2)CCN1 [CYD-5-100-2, (2R,4S)—N-((1R,2R)-1,3-dihydroxy-1-phenylpropan-2-yl)-4-phenethylpiperidine-2-carboxamide]
23 | EtOH, DMSO | O=C(N[C@H](CO)[C@H](O)c1ccccc1)[C@@H]1C[C@H](CCC2CCCCC2)CCN1 [CYD-6-1-1, (2S,4R)-4-(2-cyclohexylethyl)-N-((1R,2R)-1,3-dihydroxy-1-phenylpropan-2-yl)piperidine-2-carboxamide]
24 | EtOH, DMSO | O=C(N[C@H](CO)[C@H](O)c1ccccc1)[C@H]1C[C@@H](CCC2CCCCC2)CCN1 [CYD-6-1-2, (2R,4S)-4-(2-cyclohexylethyl)-N-((1R,2R)-1,3-dihydroxy-1-phenylpropan-2-yl)piperidine-2-carboxamide]
25 | EtOH, DMSO | CC(C)(C)c1ccc(CC[C@@H]2CCN[C@H](C(=O)N[C@H](CO)[C@H](O)c3ccccc3)C2)cc1 [CYD-6-2-1, (2S,4R)-4-(4-(tert-butyl)phenethyl)-N-((1R,2R)-1,3-dihydroxy-1-phenylpropan-2-yl)piperidine-2-carboxamide]
26 | EtOH, DMSO | CC(C)(C)c1ccc(CC[C@H]2CCN[C@@H](C(=O)N[C@H](CO)[C@H](O)c3ccccc3)C2)cc1 [CYD-6-2-2, (2R,4S)-4-(4-(tert-butyl)phenethyl)-N-((1R,2R)-1,3-dihydroxy-1-phenylpropan-2-yl)piperidine-2-carboxamide]
27 | EtOH, DMSO | Cc1ccc(CC[C@@H]2CCN[C@H](C(=O)N[C@@H](CO)[C@@H](O)c3ccccc3)C2)cc1 [CYD-6-9-2, (2S,4R)—N-((1S,2S)-1,3-dihydroxy-1-phenylpropan-2-yl)-4-(4-methylphenethyl) piperidine-2-carboxamide]
28 | EtOH, DMSO | O=C(N[C@@H](CO)[C@@H](O)c1ccccc1)[C@@H]1C[C@H](C2CCCCC2)CCN1 [CYD-6-15-2, (2S,4R)-4-cyclohexyl-N-((1S,2S)-1,3-dihydroxy-1-phenylpropan-2-yl)piperidine-2-carboxamide]
29 | EtOH, DMSO | O=C(N[C@@H](CO)[C@@H](O)c1ccccc1)[C@@H]1C[C@H](c2ccccc2)CCN1 [CYD-6-16-2, (2S,4R)—N-((1S,2S)-1,3-dihydroxy-1-phenylpropan-2-yl)-4-phenylpiperidine-2-carboxamide]
30 | EtOH, DMSO | c1ccc(N2CCNCC2CN2CCCCC2)cc1 (stereo not shown) [JZ-1-34]
31 | EtOH, DMSO | c1ccc(N2CCN(CC3CNCCN3c3ccccc3)CC2)cc1 (stereo not shown) [JZ-1-35]
